In brackets after ≈: the same amount, converted by molar mass. Read-outs that look alike come from different tables or passages of the source.

The test system of assay [1] is collection of respiratory pathogens. Particulars: high NAC concentrations; Landini et al. 2016; cited from earlier work.
In assay [2] the test system is P. aeruginosa preformed biofilms. Description: Biofilm susceptibility testing, Nunc-TSP lid system (Calgary biofilm device), preformed biofilms. It is filed as cell-based. Particulars: P. aeruginosa Z154, NAC 8000 mg/L. How it is done: In the present invention the Calgary biofilm device (also referred to as Nunc-TSP lid system in the experimental part) was the method selected to test the in vitro antibiofilm activity of colistin and NAC, alone or in combination. NAC stock solutions (100 g/L) were prepared immediately before use. NAC powder (Zambon, Bresso, Italy) was dissolved in sterile distilled water, pH was adjusted at 6.5-6.8 with NaOH 10 M and the solution was filtered through a 0.22-μm membrane filter. All experiments were performed in cation-adjusted Mueller-Hinton broth (CAMHB) (Becton Dickinson, Milan, Italy), unless otherwise specified, starting from an appropriately concentrated medium to avoid broth dilution when NAC solution were used.
Colistin Colistin stock solutions (10 mg/L) were prepared immediately before use, by dissolving colistin powder (colistin sulfate, AppliChem, Darmstadt, Germany) in sterile distilled water.
Assay. Biofilm susceptibility testing was first performed using the Nunc-TSP lid system (Thermo Fisher Scientific, Waltham, MA, USA), as described previously (Harrison J J et al., Nat Protoc, 2010; 5: 1236-54). Briefly, biofilms were grown for 24 hours in CAMHB at 35° C. under static conditions. […] Median cfu per peg (cfu/peg) was then determined by plating 10 μL of appropriate dilutions of the recovery medium onto tryptic soy agar (TSA) (Oxoid) and incubating for 24 hours at 35° C. […]

Assay [3] has as its system P. aeruginosa Z154 and Z34 preformed biofilms in ASM. Kind of assay: Artificial Sputum Medium (ASM) biofilm model. Format: cell-based. How it is done:
Methods. The potential antibiofilm synergism of NAC/colistin combinations was further investigated using an in vitro ASM biofilm model (Kirchner et al. 2012 Immunology 64:e3857), in order to mimic P. aeruginosa biofilm conditions within the CF mucus. […] In brief, biofilms were grown in ASM in 24-well tissue culture treated plates, for 72 hours at 35° C. under static conditions. Preformed biofilms were then exposed to NAC 8000 mg/L and colistin 64 mg/L, alone and in combination. […] After 24 hours of exposure (i.e., 35° C., static conditions), bacterial biofilms were disrupted by 30 minutes of sonication followed by manual pipetting, and the median cfu per mL (cfu/mL) was determined following the same protocol described for the Nunc-TSP lid assay. Data from this biofilm model were obtained in at least three independent experiments, with at least twelve replicates per condition per experiment.

In assay [4] the test system is P. aeruginosa strains. Kind of assay: Antimicrobial susceptibility (MIC), reference broth microdilution method. It is filed as cell-based. How it is done:
Fifteen clinical isolates were from CF, a MDR clinical isolate from Respiratory Tract Infection (RTI) from an Intensive Care Unit (ICU), and the reference strain P. aeruginosa PAO1 (Table 1). Identification was performed by MALDI-TOF MS (Bruker, Shimadzu). Antimicrobial susceptibility was determined using the reference broth microdilution method (CLSIMethods2018). Whole genome sequencing of clinical isolates was performed with the Illumina (San Diego, CA, USA) MiSeq platform, using a 2×150 bp paired-end approach. Raw reads were assembled using SPAdes (Bankevich et al. 2012 J Comput Biol 19(5):455-77.), and draft genomes were used to determine MLST- and O-types at the Oxford PubMLST site (https://pubmlst.org/) (Jolley et al. 2018 Wellcome Open Res 3:124) and at the Center for Genomic Epidemiology site (https://cge.cbs.dtu.dk/services/PAst-1.0/) (ThraneJCM2016), respectively. The complete genome of P. aeruginosa Z154 was obtained by combining results from Illumina with those obtained using the Oxford Nanopore Technologies (Oxford, UK) MinION platform, and de novo assembly was generated using Unicycler v0.4.4.
Background: In broth dilution the organism is exposed to a series of concentrations in liquid medium.

In assay [5] the test system is P. aeruginosa Z154 planktonic culture. Description: Time-kill assays against planktonic cultures under aerobic and anaerobic conditions. Format: cell-based. Particulars: colistin concentration higher than 0.25 mg/L, data not shown. How it is done:
Methods. Time-kill assays were performed according to CLSI guidelines (CLSI Methods M26A) with the colistin-susceptible strain Z154. Colistin 0.25 mg/L was tested alone and in combination with NAC 8000 mg/L under both aerobic and anaerobic conditions. […] The medium (CAMHB) used to obtain anoxic cultures was placed under anaerobic atmosphere by using AnaeroGen kit (Oxoid) for 3 days prior to use and during the whole experiment. The killing curves were carried out in borosilicate glass bottles with a final volume of 20 mL of CAMHB. At 0, 2, 4, 8 and 24 hours of exposure ten-fold dilutions were plated on TSA, and the number of cfu/mL was determined (detection limit, 17 cfu/mL). Data were obtained from at least four independent experiments, with two replicates per condition per experiment.

Assay [6] deals with P. aeruginosa strains. Description: Antimicrobial susceptibility (MIC), reference broth microdilution method. Format: cell-based. Conditions: isolate FC237, in the presence of NAC.

Take `CC(=O)N[C@@H](CS)C(=O)O` [NAC, N-acetylcysteine]: the “effect on activity of carbapenems” value in assay [1] was “compromised the activity of carbapenems”. Moreover, the “interference with activity of the most commonly used antibiotics” value in assay [1] is “do not interfere”. Further, the “antibiofilm activity of NAC alone” value in assay [2] is recorded as “observed”; in assay [3] (P. aeruginosa Z154, ASM model, NAC 8000 mg/L), “not observed”. The MIC (usually the lowest concentration found to suppress growth) was greater than 64 mg/mL with P. aeruginosa strains [4] (Pseudomonas aeruginosa, PAO1, strain PAO1, non-mucoid, wound, read-out: MIC); greater than 32 mg/mL in the assay with P. aeruginosa strains [4] (Pseudomonas aeruginosa, strain FC237, non-mucoid, CF, colistin-resistant, read-out: MIC); greater than 32 mg/mL in the assay on P. aeruginosa strains [4] (Pseudomonas aeruginosa, strain FC238, non-mucoid, CF, colistin-resistant, read-out: MIC); 64 mg/mL (≈ 392 mM) in the assay with P. aeruginosa strains [4] (Pseudomonas aeruginosa, strain FZ99, non-mucoid, RTI ICU, colistin-resistant, read-out: MIC); 16 mg/mL (≈ 98 mM) in the assay on P. aeruginosa strains [4] (Pseudomonas aeruginosa, strain M1, mucoid, CF, read-out: MIC); 32 mg/mL (≈ 196 mM) in the assay on P. aeruginosa strains [4] (Pseudomonas aeruginosa, strain M4, mucoid, CF, read-out: MIC). For the same compound, the MIC in the assay with P. aeruginosa strains [4] (Pseudomonas aeruginosa, strain M7, mucoid, CF, read-out: MIC) is 64 mg/mL (≈ 392 mM); in the assay on P. aeruginosa strains [4] (Pseudomonas aeruginosa, strain M13, mucoid, CF, read-out: MIC) it was 32 mg/mL (≈ 196 mM); in the assay with P. aeruginosa strains [4] (Pseudomonas aeruginosa, strain M19, mucoid, CF, read-out: MIC), 64 mg/mL (≈ 392 mM); with P. aeruginosa strains [4] (Pseudomonas aeruginosa, strain M25, mucoid, CF, read-out: MIC), 16 mg/mL (≈ 98 mM); in the assay on P. aeruginosa strains [4] (Pseudomonas aeruginosa, strain M32, mucoid, CF, read-out: MIC), 16 mg/mL (≈ 98 mM); in the assay with P. aeruginosa strains [4] (Pseudomonas aeruginosa, strain M42, mucoid, CF, read-out: MIC), greater than 32 mg/mL. Also, the MIC in the assay with P. aeruginosa strains [4] (Pseudomonas aeruginosa, strain Z33, non-mucoid, CF, read-out: MIC) is 16 mg/mL (≈ 98 mM); in the assay with P. aeruginosa strains [4] (Pseudomonas aeruginosa, strain Z34, non-mucoid, CF, read-out: MIC), greater than 16 mg/mL; in the assay on P. aeruginosa strains [4] (Pseudomonas aeruginosa, strain Z35, non-mucoid, CF, read-out: MIC) it was 16 mg/mL (≈ 98 mM); in the assay with P. aeruginosa strains [4] (Pseudomonas aeruginosa, strain Z152, mucoid, CF, read-out: MIC), 8 mg/mL (≈ 49 mM); with P. aeruginosa strains [4] (Pseudomonas aeruginosa, strain Z154, mucoid, CF, read-out: MIC), 16 mg/mL (≈ 98 mM).

Take colistin [CST]: the “effect on planktonic cultures” value in assay [5] is “eradication of the planktonic cultures”. In addition, the “colistin MIC reduced in the presence of NAC (fraction of MIC)” value in the assay on P. aeruginosa strains [6] is recorded as 1/64. For the same compound, the “concentration of colistin which allowed to observe a synergism” value in assay [3] (ASM model, with NAC 8000 mg/L) is listed as 32 ×MIC. Besides, the “antibiofilm activity of colistin in absence of NAC” value in assay [3] (higher colistin concentrations (>64 mg/L), data not shown) is on record as “eradication of the biofilm cultures”. The colistin antibiofilm activity entry in assay [3] (lower colistin concentrations, preliminary experiments, data not shown) was “did not show either colistin antibiofilm activity”. Also, the “colistin MIC values” with P. aeruginosa strains [4] (colistin-susceptible strains) lay within 0.001 to 0.002 mg/mL. The “MIC” value amounted to 0.512 mg/mL against P. aeruginosa strains [4] (strain FC237, non-mucoid, CF, colistin-resistant); 0.008 mg/mL against P. aeruginosa strains [4] (strain FC238, non-mucoid, CF, colistin-resistant); 0.004 mg/mL in the assay on P. aeruginosa strains [4] (strain FZ99, non-mucoid, RTI ICU, colistin-resistant); 0.002 mg/mL in the assay on P. aeruginosa strains [4] (strain M1, mucoid, CF); 0.002 mg/mL against P. aeruginosa strains [4] (strain M4, mucoid, CF); 0.002 mg/mL in the assay with P. aeruginosa strains [4] (strain M7, mucoid, CF). Also, the “MIC” value in the assay with P. aeruginosa strains [4] (strain M13, mucoid, CF) worked out at 0.001 mg/mL; with P. aeruginosa strains [4] (strain M19, mucoid, CF) it was 0.001 mg/mL; with P. aeruginosa strains [4] (strain M25, mucoid, CF) it was 0.002 mg/mL; against P. aeruginosa strains [4] (strain M32, mucoid, CF), 0.002 mg/mL; in the assay with P. aeruginosa strains [4] (strain M42, mucoid, CF) it was 0.002 mg/mL; against P. aeruginosa strains [4] (strain PAO1, non-mucoid, wound) it was 0.002 mg/mL. Besides, the “MIC” value against P. aeruginosa strains [4] (strain Z33, non-mucoid, CF) was 0.001 mg/mL; in the assay on P. aeruginosa strains [4] (strain Z34, non-mucoid, CF), 0.002 mg/mL; against P. aeruginosa strains [4] (strain Z35, non-mucoid, CF), 0.001 mg/mL; against P. aeruginosa strains [4] (strain Z152, mucoid, CF), 0.002 mg/mL; with P. aeruginosa strains [4] (strain Z154, mucoid, CF), 0.002 mg/mL.

Values taken from patent US20250325625A1, “ANTIMICROBIAL ASSOCIATION IN THE TREATMENT OF P. AERUGINOSA BIOFILM-ASSOCIATED INFECTIONS” (Zambon S.P.A., priority 2022, published 2025).
